# According to US12552799B2, “Triazolone compounds” (Nxera Pharma UK Limited, priority 2020, dated 2026):
# How the values were obtained:
# [1] = target: human adenosine A2A receptor (Homo sapiens (Human), UniProt P29274); test: Adenosine receptor binding assay, A2A ([3H]ZM241385 inhibition binding on HEK293 membranes); conditions: 1 nM [3H]ZM241385, 25° C., 1 h; Ki from IC50 by Cheng-Prusoff
# Description: (§1) Inhibition binding assays were performed using 0.2 μg of membranes prepared from HEK293 cells infected with BacMam human adenosine A2A receptor or 1.4 μg of membranes prepared from HEK293 cells infected with BacMam human adenosine A1 receptor. Membranes were incubated in 50 mM Tris-HCl (HEK293-hA2A; pH 7.4) or 50 mM Tris-HCl, 100 mM NaCl, 10 mM MgCl2 (CHO-hA1; pH 7.4) in the presence of varying concentrations of test compound and 1 nM [^3H]ZM241385 (HEK293-hA2A) or [^3H]DPCPX (CHO-hA1) at 25° C. for 1 h. The assay was then terminated by rapid filtration onto GF/B grade Unifilter plates using a TomTec cell harvester, followed by 5×0.5 ml washes with ddH2O. Nonspecific binding was defined in the presence of 1 μM CGS15943 (HEK293-hA2A) or 1 μM DPCPX (CHO-hA1). Bound radioactivity was determined by liquid scintillation counting and inhibition curves were analysed using a four-parameter logistic equation. IC50 values were converted to Ki values with the Cheng-Prusoff equation using a KD value derived from saturation binding studies.
# [2] = target: human adenosine A1 receptor (Homo sapiens (Human), UniProt P30542); test: Adenosine receptor binding assay, A1 ([3H]DPCPX inhibition binding on membranes); conditions: 1 nM [3H]DPCPX, 25° C., 1 h; Ki from IC50 by Cheng-Prusoff
# Description: as §1
# human adenosine A2A receptor, sequence (P29274 whole entry): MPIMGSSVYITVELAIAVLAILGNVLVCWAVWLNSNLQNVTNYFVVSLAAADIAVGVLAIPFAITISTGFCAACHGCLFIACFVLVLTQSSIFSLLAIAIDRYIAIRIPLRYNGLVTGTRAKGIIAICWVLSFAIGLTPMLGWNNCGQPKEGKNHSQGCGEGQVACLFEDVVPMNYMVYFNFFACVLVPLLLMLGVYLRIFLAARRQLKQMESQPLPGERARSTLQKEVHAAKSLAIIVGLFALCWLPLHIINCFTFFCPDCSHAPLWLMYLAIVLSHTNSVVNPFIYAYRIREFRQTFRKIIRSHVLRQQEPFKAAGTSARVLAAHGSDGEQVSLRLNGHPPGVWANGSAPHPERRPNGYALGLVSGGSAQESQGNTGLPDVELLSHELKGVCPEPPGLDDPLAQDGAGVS
# human adenosine A1 receptor, sequence (P30542 whole entry): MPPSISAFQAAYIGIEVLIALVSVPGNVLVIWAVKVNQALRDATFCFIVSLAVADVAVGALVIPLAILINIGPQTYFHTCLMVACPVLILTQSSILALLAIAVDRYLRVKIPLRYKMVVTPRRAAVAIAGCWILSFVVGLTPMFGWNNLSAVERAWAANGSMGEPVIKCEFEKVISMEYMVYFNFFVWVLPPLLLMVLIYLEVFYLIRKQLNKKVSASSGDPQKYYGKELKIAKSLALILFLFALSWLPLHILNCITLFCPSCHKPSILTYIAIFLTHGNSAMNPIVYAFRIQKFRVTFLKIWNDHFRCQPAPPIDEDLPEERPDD
A2A pKi [1],A1 pKi [2],SMILES
7.1,<5.4,"C[C@@H]1CN(c2c(-c3ccccc3)nc(N)n3c(=O)n(CCC(F)F)nc23)C[C@H](C)O1 [Example 1-3, 5-amino-2-(3,3-difluoropropyl)-8-[(cis)-2,6-dimethylmorpholin-4-yl]-7-phenyl-[1,2,4]triazolo[4,3-c]pyrimidin-3-one]"
7.3,<5.5,"C[C@@H]1CN(c2c(-c3ccc(F)cc3)nc(N)n3c(=O)n(CCC(F)(F)F)nc23)C[C@H](C)O1 [Example 1-5, 5-amino-8-[(cis)-2,6-dimethylmorpholin-4-yl]-7-(4-fluorophenyl)-2-(3,3,3-trifluoropropyl)-[1,2,4]triazolo[4,3-c]pyrimidin-3-one]"
6.9,6.4,"CCCn1nc2c(N3C[C@@H](C)O[C@@H](C)C3)c(-c3ccc(F)cc3)nc(N)n2c1=O [Example 1-6, 5-amino-8-[(cis)-2,6-dimethylmorpholin-4-yl]-7-(4-fluorophenyl)-2-propyl-[1,2,4]triazolo[4,3-c]pyrimidin-3-one]"
6.7,<5.5,"C[C@@H]1CN(c2c(-c3ccccc3)nc(N)n3c(=O)n(CCN4CCCCC4)nc23)C[C@H](C)O1 [Example 1-9, 5-amino-8-[(cis)-2,6-dimethylmorpholin-4-yl]-7-phenyl-2-[2-(1-piperidyl)ethyl]-[1,2,4]triazolo[4,3-c]pyrimidin-3-one]"
6.9,<5.4,"C[C@@H]1CN(c2c(-c3ccccc3)nc(N)n3c(=O)n(C[C@H]4COCCN4)nc23)C[C@H](C)O1 [Example 1-10, 5-amino-8-[(cis)-2,6-dimethylmorpholin-4-yl]-2-[[(3S)-morpholin-3-yl]methyl]-7-phenyl-[1,2,4]triazolo[4,3-c]pyrimidin-3-one]"
6.7,<5.6,"C[C@@H]1CN(c2c(-c3ccccc3)nc(N)n3c(=O)n(C[C@@H]4COCCN4)nc23)C[C@H](C)O1 [Example 1-11, 5-amino-8-[(cis)-2,6-dimethylmorpholin-4-yl]-2-[[(3R)-morpholin-3-yl]methyl]-7-phenyl-[1,2,4]triazolo[4,3-c]pyrimidin-3-one]"
6.9,<5.4,"C[C@@H]1CN(c2c(-c3ccccc3)nc(N)n3c(=O)n(C[C@H]4COCCN4C)nc23)C[C@H](C)O1 [Example 1-12, 5-amino-8-[(cis)-2,6-dimethylmorpholin-4-yl]-2-[[(3S)-4-methylmorpholin-3-yl]methyl]-7-phenyl-[1,2,4]triazolo[4,3-c]pyrimidin-3-one]"
7.1,<5.4,"C[C@@H]1CN(c2c(-c3ccccc3)nc(N)n3c(=O)n(C[C@@H]4COCCN4C)nc23)C[C@H](C)O1 [Example 1-13, 5-amino-8-[(cis)-2,6-dimethylmorpholin-4-yl]-2-[[(3R)-4-methylmorpholin-3-yl]methyl]-7-phenyl-[1,2,4]triazolo[4,3-c]pyrimidin-3-one]"
8.4,6.4,"COc1ncccc1Cn1nc2c(N3C[C@@H](C)O[C@@H](C)C3)c(-c3ccccc3)nc(N)n2c1=O [Example 1-15, 5-amino-8-[(cis)-2,6-dimethylmorpholin-4-yl]-2-[(2-methoxy-3-pyridyl)methyl]-7-phenyl-[1,2,4]triazolo[4,3-c]pyrimidin-3-one]"
7.2,6.1,"C[C@@H]1CN(c2c(-c3ccccc3)nc(N)n3c(=O)n(Cc4cccnn4)nc23)C[C@H](C)O1 [Example 1-16, 5-amino-8-[(cis)-2,6-dimethylmorpholin-4-yl]-7-phenyl-2-(pyridazin-3-ylmethyl)-[1,2,4]triazolo[4,3-c]pyrimidin-3-one]"
7.2,<5.8,"C[C@@H]1CN(c2c(-c3ccccc3)nc(N)n3c(=O)n(CCc4ccccc4)nc23)C[C@H](C)O1 [Example 1-17, 5-amino-8-[(cis)-2,6-dimethylmorpholin-4-yl]-7-phenyl-2-(2-phenylethyl)-[1,2,4]triazolo[4,3-c]pyrimidin-3-one]"
7.4,<5.5,"C[C@@H]1CC(c2c(-c3ccccc3)nc(N)n3c(=O)n(CCC(F)(F)F)nc23)C[C@H](C)O1 (stereo partly drawn) [Example 2-2, 5-amino-8-[(cis)-2,6-dimethyltetrahydropyran-4-yl]-7-phenyl-2-(3,3,3-trifluoropropyl)-[1,2,4]triazolo[4,3-c]pyrimidin-3-one]"
9.8,6.9,"Cc1ccc(Cn2nc3c(-c4cc(C)c5ncoc5c4)c(-c4ccc(F)cc4)nc(N)n3c2=O)nc1 [Example 4-3, 5-amino-7-(4-fluorophenyl)-8-(4-methyl-1,3-benzoxazol-6-yl)-2-[(5-methyl-2-pyridyl)methyl]-[1,2,4]triazolo[4,3-c]pyrimidin-3-one]"
9.9,7.7,"Cc1nc(Cn2nc3c(-c4cc(C)c5ncoc5c4)c(-c4ccc(F)cc4)nc(N)n3c2=O)c(C)o1 [Example 4-7, 5-amino-2-[(2,5-dimethyloxazol-4-yl)methyl]-7-(4-fluorophenyl)-8-(4-methyl-1,3-benzoxazol-6-yl)-[1,2,4]triazolo[4,3-c]pyrimidin-3-one]"
9.6,8.4,"Cc1ocnc1Cn1nc2c(-c3cc(C)c4[nH]ncc4c3)c(-c3ccc(F)cc3)nc(N)n2c1=O [Example 4-8, 5-amino-7-(4-fluorophenyl)-8-(7-methyl-1H-indazol-5-yl)-2-[(5-methyloxazol-4-yl)methyl]-[1,2,4]triazolo[4,3-c]pyrimidin-3-one]"
10.0,8.7,"[2H]c1c([2H])c([2H])c(-c2nc(N)n3c(=O)n(Cc4ncoc4C)nc3c2-c2cc(C)c3[nH]ncc3c2)c([2H])c1[2H] [Example 4-10, 5-amino-8-(7-methyl-1H-indazol-5-yl)-2-[(5-methyloxazol-4-yl)methyl]-7-(2,3,4,5,6-pentadeuteriophenyl)-[1,2,4]triazolo[4,3-c]pyrimidin-3-one]"
